The target of assay [1] is Recombinant human EIF2AK3 (PERK) catalytic domain (amino acids 536-1116) (Homo sapiens (Human), UniProt Q9NZJ5). The experiment in a line: PERK In Vitro Activity Assay (isolated), TR-FRET kinase assay. The following applies: isolated PERK enzyme, 1.5 μM ATP, read-out: Biochemical IC50. A digest of the protocol: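 IC50 values come from 4-parameter logistic fits of TR-FRET ratios, read after 90 min with 2 nM terbium-labelled phospho-eIF2a antibody following an EDTA stop (10 mM final). The kinase reaction ran 45 min at room temperature, started by adding PERK catalytic domain to 100–200 nM GFP-eIF2a in HEPES pH 7.5 buffer with MgCl2, EGTA and Brij-35.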

For assay [2], the system named is eIF2α in HEK293-EGFP-eIF2α cells. The experiment in a line: PERK Cellular Assay (HEK293-EGFP-eIF2α cells, tunicamycin-induced ER stress, TR-FRET). Format: cell-based. The conditions noted are these: tunicamycin 2 hours. A digest of the protocol: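 After 2 h tunicamycin ([…]) stress following 30 min compound pretreatment at 37 °C, lysed HEK293-EGFP-eIF2α cells were read by TR-FRET. IC50 derived by 4-parameter logistic fitting of percent inhibition, DMSO-normalized, from 10-point 3-fold dilutions.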
A general note: TR-FRET usually uses a lanthanide donor and a delayed reading to cut background.

Sequence of Recombinant human EIF2AK3 (PERK) catalytic domain (amino acids 536-1116) (Q9NZJ5 536-1116): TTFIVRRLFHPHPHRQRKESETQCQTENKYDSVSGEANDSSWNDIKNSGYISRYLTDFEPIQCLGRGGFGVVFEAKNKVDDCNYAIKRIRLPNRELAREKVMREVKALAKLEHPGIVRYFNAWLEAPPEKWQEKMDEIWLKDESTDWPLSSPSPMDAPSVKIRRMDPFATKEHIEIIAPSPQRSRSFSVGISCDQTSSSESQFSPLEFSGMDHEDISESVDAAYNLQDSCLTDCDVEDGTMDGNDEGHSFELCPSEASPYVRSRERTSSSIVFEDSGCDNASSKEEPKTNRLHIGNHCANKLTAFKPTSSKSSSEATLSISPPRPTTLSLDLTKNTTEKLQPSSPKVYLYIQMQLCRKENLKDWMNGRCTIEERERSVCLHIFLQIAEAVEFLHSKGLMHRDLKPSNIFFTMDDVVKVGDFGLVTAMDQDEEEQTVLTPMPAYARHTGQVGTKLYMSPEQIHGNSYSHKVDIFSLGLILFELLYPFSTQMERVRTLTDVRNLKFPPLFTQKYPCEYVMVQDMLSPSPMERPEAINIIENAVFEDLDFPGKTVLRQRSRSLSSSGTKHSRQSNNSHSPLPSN

What is called IC50 is the concentration that gives 50% inhibition. `[2H]C([2H])([2H])c1nc(-c2ccc(NC(=O)C(O)c3cccc(C(F)(F)F)c3)nc2C)c2c(N)nc(C)cn12` (stereo not drawn) [Example 176, N-[5-[8-amino-6-methyl-3-(trideuteriomethyl)imidazo[1,5-a]pyrazin-1-yl]-6-methyl-2-pyridyl]-2-hydroxy-2-[3-(trifluoromethyl)phenyl]acetamide]: the concentration for half-maximal inhibition (IC50) in assay [1] was in the range of 1 to 25 nM; in assay [2], 51 to 100 nM.
Taken in the same sequence, the figures for `[2H]C([2H])([2H])c1nc(-c2ccc(NC(=O)C(O)c3cc(F)cc(F)c3)cc2C)c2c(N)ncc(C(F)(F)F)n12` (stereo not drawn) [Example 46, N-[4-[8-amino-3-(trideuteriomethyl)-5-(trifluoromethyl)imidazo[1,5-a]pyrazin-1-yl]-3-methyl-phenyl]-2-(3,5-difluoro-phenyl)-2-hydroxy-acetamide] were 1 to 25 nM and 26 to 50 nM.
`[2H]C([2H])([2H])c1nc(-c2ccc(NC(=O)C(O)c3cccc(Cl)c3)cc2F)c2c(N)nc(C)cn12` (stereo not drawn) [Example 81, N-[4-[8-amino-6-methyl-3-(trideuteriomethyl)imidazo[1,5-a]pyrazin-1-yl]-3-fluoro-phenyl]-2-(3-chlorophenyl)-2-hydroxy-acetamide]: the figures for the half-maximal inhibitory concentration (IC50) in assay [1] and in assay [2] were 1 to 25 nM and 101 to 250 nM, respectively.
Taken in the same sequence, the figures for `[2H]C([2H])([2H])c1nc(-c2ccc(NC(=O)C(O)c3cccc(C(F)(F)F)c3)cc2C)c2c(N)ncc(C)n12` (stereo not drawn) [Example 17, N-[4-[8-amino-5-methyl-3-(trideuteriomethyl)imidazo[1,5-a]pyrazin-1-yl]-3-methyl-phenyl]-2-hydroxy-2-[3-(trifluoromethyl)phenyl]acetamide] were 1 to 25 nM and 101 to 250 nM.
Taken in the same sequence, the figures for `[2H]C([2H])([2H])c1nc(-c2ccc(NC(=O)C(O)c3cc(F)cc(C(F)(F)F)c3)cc2F)c2c(N)ncc(C(F)(F)F)n12` (stereo not drawn) [Example 113, N-[4-[8-amino-3-(trideuteriomethyl)-5-(trifluoromethyl)imidazo[1,5-a]pyrazin-1-yl]-3-fluoro-phenyl]-2-[3-fluoro-5-(trifluoromethyl)phenyl]-2-hydroxy-acetamide] were 51 to 100 nM and 101 to 250 nM.
Taken in the same sequence, the figures for `[2H]C([2H])([2H])c1nc(-c2ccc(NC(=O)C(O)c3cc(F)cc(C(F)(F)F)c3)cc2F)c2c(N)nc(C)cn12` (stereo not drawn) [Example 116, N-[4-[8-amino-6-methyl-3-(trideuteriomethyl)imidazo[1,5-a]pyrazin-1-yl]-3-fluoro-phenyl]-2-[3-fluoro-5-(trifluoromethyl)phenyl]-2-hydroxy-acetamide] were 1 to 25 nM and 1 to 25 nM.
On to `[2H]C([2H])([2H])c1nc(-c2ccc(NC(=O)C(O)c3cccc(C(F)(F)F)c3)cc2F)c2c(N)ncc(C(F)(F)F)n12` (stereo not drawn) [Example 99, N-[4-[8-amino-3-(trideuteriomethyl)-5-(trifluoromethyl)imidazo[1,5-a]pyrazin-1-yl]-3-fluoro-phenyl]-2-hydroxy-2-[3-(trifluoromethyl)phenyl]acetamide], for which the IC50 in assay [1] was in the range of 26 to 50 nM; in assay [2], 101 to 250 nM.
The matching figures for `Cc1cn2c(C)nc(-c3ccc(NC(=O)C(O)c4cccc(F)c4)cc3C)c2c(N)n1` (single isomer, unassigned) [Example 4, N-(4-(8-amino-3,6-dimethylimidazo[1,5-a]pyrazin-1-yl)-3-methylphenyl)-2-(3-fluorophenyl)-2-hydroxyacetamide]: 51 to 100 nM and 251 to 500 nM.
In the case of `[2H]C([2H])([2H])c1nc(-c2ccc(NC(=O)C(O)c3cccc(C(F)(F)F)c3)cc2C)c2c(N)ncc(C)n12` (stereo not drawn) [Example 16, N-[4-[8-amino-5-methyl-3-(trideuteriomethyl)imidazo[1,5-a]pyrazin-1-yl]-3-methyl-phenyl]-2-hydroxy-2-[3-(trifluoromethyl)phenyl]acetamide], the concentration for half-maximal inhibition (IC50) in assay [1] was 1000 to 2000 nM; in assay [2], greater than 5000 nM.

These data come from patent US12331054B2, “Perk inhibiting imidazolopyrazine compounds” (HiberCell, Inc., priority 2019, dated 2025).
